IC50 data for 51 molecules are collected here from patent US20240400546A1, “COMPOUNDS AND USES THEREOF” (JANSSEN PHARMACEUTICA NV, priority 2016, published 2024).

The target of one test is T1, SCD1 (Homo sapiens, UniProt O00767).
T1 construct: host or cells: S. cerevisiae ole1Δ strain, plasmid pRS316 with TDH3 promoter and CYC1 terminator
T1 sequence (O00767 1-359): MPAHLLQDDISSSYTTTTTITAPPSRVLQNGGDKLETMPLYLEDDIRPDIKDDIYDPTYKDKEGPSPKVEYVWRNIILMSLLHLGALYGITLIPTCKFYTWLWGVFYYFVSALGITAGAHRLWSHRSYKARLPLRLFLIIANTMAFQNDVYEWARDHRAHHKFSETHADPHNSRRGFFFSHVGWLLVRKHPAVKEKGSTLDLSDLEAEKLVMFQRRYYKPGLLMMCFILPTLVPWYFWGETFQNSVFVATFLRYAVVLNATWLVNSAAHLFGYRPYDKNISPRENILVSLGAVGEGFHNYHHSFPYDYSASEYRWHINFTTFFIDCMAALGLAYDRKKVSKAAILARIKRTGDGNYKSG
As to the kind of experiment: Growth inhibition of humanized yeast expressing SCD1 as sole desaturase. It counts as cell-based. The settings on record: humanized yeast expressing SCD1. How it is done: Strain ole1Δ (yeast ole1 deletion mutant) was constructed by deleting OLE1 with NAT-MX6 in BY4741, amplifying the deletion cassette from the genomic DNA of the resulting strain with primers flanking the ORF by 1000 bp upstream and downstream, transforming the resulting deletion cassette into W303 pdr1Δ pdr3Δ, and plating transformants on YPD media containing G418 (200 μg/mL) and nourseothricin (100 μg/mL) with 0.01% TWEEN®-20 and 0.5 mM oleic and palmitoleic acids.
The coding sequence of yeast OLE1 was also cloned into this plasmid). These clones were then transformed into the ole1Δ strain and plated on CSM-Ura media (CSM lacking uracil) with 2% glucose (w/v) and independent colonies were isolated and amplified.
All compound profiling experiments were performed using the same basic protocol. Different genetic backgrounds (e.g., gene deletions) or conditions (e.g., addition of oleic and palmitoleic acid) were replaced as indicated below.
Yeast were cultured using standard techniques in complete synthetic media (CSM) and yeast nitrogen base supplemented with 2% (w/v) carbon source (glucose, raffinose, or galactose) to regulate the expression of the toxic disease protein. An initial starter culture was inoculated in 3 mL CSM-Glucose media and incubated overnight in a 30° C. shaker incubator (225 rpm). Saturated morning cultures were then diluted 1:20 in fresh CSM-Raffinose media and grown for 6 h to an OD600 (optical density) of ˜0.4-0.8 at 30° C. with shaking.
Compound administration was performed in two separate steps. First, 15 μL of CSM-Galactose (induces expression of toxic protein) was dispensed into clear 384 well assay plates using a MULTIDROP™ Combi reagent dispenser. […] The cultures described above were then diluted to a 2× concentration (0.03 and 0.08 for alpha-synuclein and ApoE, final OD600 of 0.015 and 0.04) in CSM-Galactose. For wild-type and Ole1/SCD1/SCD5 plasmid-containing strains, the 2× cell density was 0.02. […] For 96-well assays (FIGS. 1A and 1B), compound dilutions in DMSO were generated in 96 well plates and 1 μL was manually pipetted into 96 well clear bottom assay plates.
For experiments using a plasmid-borne copy of Ole1, SCD1, or SCD5 (FIGS. 3B, 6, and 7), media lacking uracil (SX-Ura, where X is glucose, raffinose, or galactose), was used for all steps of the compound profiling protocol to ensure its maintenance throughout the assay.
After yeast delivery, assay plates were incubated under humidified conditions at 30° C. for 24 to 40 h. ApoE4 rescue experiments were stopped at 24 h, aSyn experiments at 40 h, Ole1 at 24 h, and SCD1/SCD5 at 40 h. The growth of yeast was monitored by reading the OD600 of each well using a microplate reader (Perkin Elmer EnVision™).
The IC50 is the concentration that gives 50% inhibition. High values mean weaker potency in that assay, low ones greater potency in that assay. Molecule `COc1cccc(-c2noc(C3CC(=O)N(c4ccc(C)c(C)c4)C3)n2)c1` (stereo not drawn) [Compound 489] yielded a concentration for half-maximal inhibition (IC50) of 41 µM.

On to `COc1ccc(-c2noc(C3CCNCC3)n2)cc1OC` [Compound 488], for which the concentration for half-maximal inhibition (IC50) was more than 45 µM.

Take `CC1(C)CC(=O)c2c(O)cc(OCC(=O)NCCc3nc(-c4ccccc4)no3)cc2O1` [Compound 487]: the half-maximal inhibitory concentration (IC50) is more than 45 µM.

In the case of `CCNCc1nc(-c2ccc3c(c2)N(CC)C(=O)CO3)no1` [Compound 493], the IC50 is more than 45 µM.

As to `Cc1ccc(-c2nc(C3CCN(C(=O)C4CC(=O)N(c5ccc(C)c(C)c5)C4)CC3)no2)cc1` (stereo not drawn) [Compound 50], the IC50 stood at 41 µM.

`Cn1c(=O)n(C)c2cc(-c3noc(C4CCN(C(=O)[C@@H](CO)NC(=O)c5ccccc5)CC4)n3)ccc21` [Compound 214]: the midpoint of inhibition, the IC50, lay at 41 µM.

Staying with this test, now noted: humanized yeast expressing human SCD1.
`CC(C)n1ncc2ccc(-c3noc(C4CCN(C(=O)c5cccs5)CC4)n3)cc21` [Compound 574]: the IC50 is more than 45 µM.

`CC(C)c1ccc(C(=O)N2CCC(c3nc(C(=O)Nc4ccnn4C)no3)CC2)cc1` [Compound 287]: the IC50 was more than 45 µM.

In turn, `CCc1c2ccc(-c3noc(C4CCN(C(=O)CNC(=O)c5ccccc5)CC4)n3)cc2nn1C` [Compound 321] came in with a 50% inhibitory concentration (IC50) of more than 45 µM.

Molecule `Cc1nn(C)c2cc(-c3noc(C4CCN(C(=O)c5cc(F)ccc5C(F)(F)F)CC4)n3)ccc12` [Compound 292] yielded an IC50 of more than 45 µM.

The molecule `Cc1nn(C)c2cc(-c3nsc(C4CCN(C(=O)OC(C)(C)C)CC4)n3)ccc12` [Compound 503] had an IC50 of more than 45 µM.

As for `CC(C)n1ncc2ccc(N3CC4(CCN(C(=O)c5ccccc5Cl)CC4)C3)cc21` [Compound 534], the IC50 is more than 45 µM.

For `Cc1nn(C)c2cc(-c3noc(C4CCN(C(=O)N5CCOCC5)CC4)n3)ccc12` [Compound 311], the IC50 is more than 45 µM.

`CC(C)n1ncc2ccc(-c3noc(C4CCN(C(=O)[C@@H]5CC(=O)N(c6cccc(C#N)c6)C5)CC4)n3)cc21` [Compound 528] returned an IC50 of more than 45 µM.

For `Cc1nn(C)c2cc(-c3noc(C4CCN(C(=O)c5cccc(F)c5)CC4)n3)ccc12` [Compound 284], the IC50 is more than 45 µM.

The molecule `COc1ccc(-c2noc(C3CCN(C(=O)CNC(=O)c4ccccc4)CC3)n2)cc1OC(C)C` [Compound 274] showed an IC50 of more than 45 µM.

On to `CC(C)n1ncc2ccc(-c3noc(N4C[C@@H]5CN(C(=O)CC(C)(C)C)C[C@H]5C4)n3)cc21` [Compound 569], for which the IC50 is more than 45 µM.

With `CC(C)CS(=O)(=O)N1CCC(c2nc(-c3ccc4cnn(C(C)C)c4c3)no2)CC1` [Compound 565], the IC50 was more than 45 µM.

`CC(C)n1ncc2ccc(-c3noc(N4CC5(CCN(C(=O)OC(C)(C)C)CC5)C4)n3)cc21` [Compound 555] displayed a half-maximal inhibitory concentration (IC50) of more than 45 µM.

The molecule `CC(C)n1ncc2ccc(-c3noc(C4CCN(C(=O)c5ccc(Cl)cc5F)CC4)n3)cc21` [Compound 533] displayed a half-maximal inhibitory concentration (IC50) of more than 45 µM.

The molecule `CCOC(=O)N1CCC(c2nc(-c3ccc4cnn(C(C)C)c4c3)no2)CC1` [Compound 361] showed an IC50 of more than 45 µM.

On to `CCc1cnc(N2CCC(c3nc(-c4ccc5c(C)nn(C)c5c4)no3)CC2)cn1` [Compound 560], for which the IC50 was more than 45 µM.

For the molecule `N#Cc1ccc(-c2noc(C3CCN(C(=O)[C@H]4CC(=O)N(c5ccccc5)C4)CC3)n2)s1` [Compound 247], the IC50 was more than 45 µM.

`C[C@@H](O)C(=O)N1CCC(c2nc(-c3ccc4cnn(C5COC5)c4c3)no2)CC1` [Compound 597]: the IC50 was more than 45 µM.

On to `CC(C)n1ncc2ccc(-c3noc(C4CCN(S(=O)(=O)c5ccccc5Cl)CC4)n3)cc21` [Compound 540], for which the IC50 was more than 45 µM.

With `Cc1nn(C)c2cc(-c3noc(N4CCN(C(=O)c5ccccc5)CC4)n3)ccc12` [Compound 261], the IC50 is more than 45 µM.

Regarding `CC(C)n1ncc2ccc(-c3noc(C4CCN(C(=O)c5nccs5)CC4)n3)cc21` [Compound 549], the IC50 is more than 45 µM.

With `CC(C)n1ncc2ccc(-c3nc(C4CCN(C(=O)c5cccc(F)c5)CC4)no3)cc21` [Compound 506], the IC50 is more than 45 µM.

Take `COc1cc(-c2noc(C3CCN(C(=O)CNC(=O)c4ccccc4)CC3)n2)ccc1OC1CC1` [Compound 249]: the half-inhibitory concentration (IC50) is more than 45 µM.

With `Cc1nn(C)c2cc(-c3noc(C4CCN(C(=O)c5ccc(Cl)cc5)CC4)n3)ccc12` [Compound 291], the IC50 was more than 45 µM.

The molecule `CC(C)(C)OC(=O)N1CCC(c2nc(-c3ccc4cnn(C5CC5)c4c3)no2)CC1` [Compound 360] yielded an IC50 of more than 45 µM.

Consider `Cc1nn(C)c2ccc(-c3noc(C4CCN(C(=O)c5ccc(C(C)C)cc5)CC4)n3)cc12` [Compound 297], for which the half-inhibitory concentration (IC50) is more than 45 µM.

Molecule `CC(C)n1ncc2ccc(-c3noc(C4CCN(C(=O)c5ccsc5Cl)CC4)n3)cc21` [Compound 575] returned an IC50 of more than 45 µM.

The molecule `COC(=O)N1CCN(c2nc(-c3ccc4cnn(C(C)C)c4c3)no2)CC1` [Compound 356] gave a half-maximal inhibitory concentration (IC50) of more than 45 µM.

Molecule `CCn1nc2cc(-c3noc(C4CCN(C(=O)CNC(=O)c5ccccc5)CC4)n3)ccc2c1C` [Compound 320] yielded a half-maximal inhibitory concentration (IC50) of more than 45 µM.

The molecule `CCc1nn(C)c2cc(-c3noc(C4CCN(C(=O)CNC(=O)c5ccccc5)CC4)n3)ccc12` [Compound 309] yielded an IC50 of more than 45 µM.

Take `CC(=O)N[C@H]1CC[C@H](c2nc(-c3ccc4cnn(C(C)C)c4c3)no2)CC1` [Compound 535]: the IC50 was more than 45 µM.

As for `CC(C)n1ncc2ccc(-c3noc([C@H]4CC[C@@H](N)CC4)n3)cc21` [Compound 536], the IC50 is more than 45 µM.

The molecule `CC1(OC(=O)N2CCC(c3nc(-c4ccc5cnn(C6COC6)c5c4)no3)CC2)CC1` [Compound 576] registered an IC50 of more than 45 µM.

Consider `N#Cc1cccc(N2C[C@H](C(=O)N3CCC(c4nc(-c5ccc6cnn(C7COC7)c6c5)no4)CC3)CC2=O)c1` [Compound 600], for which the IC50 was more than 45 µM.

The molecule `Cc1nn(C)c2cc(-c3noc(C4CCN(c5nc(C(C)C)no5)CC4)n3)ccc12` [Compound 581] returned a half-maximal inhibitory concentration (IC50) of more than 45 µM.

In turn, `CCn1nc(C)c2ccc(-c3noc(C4CCN(C(=O)OC(C)(C)C)CC4)n3)cc21` [Compound 301] registered a 50% inhibitory concentration (IC50) of more than 45 µM.

As to `Cc1nn(C)c2cc(-c3noc(N4CCN(C(=O)[C@H]5CC(=O)N(c6ccccc6)C5)CC4)n3)cnc12` [Compound 246], the IC50 was more than 45 µM.

Take `Cn1c(=O)n(C)c2cc(-c3noc(C4CCN(C(=O)[C@H]5CC(=O)N(c6ccccn6)C5)CC4)n3)ccc21` [Compound 256]: the IC50 is more than 45 µM.

For `Cc1noc2cc(-c3noc(C4CCN(C(=O)CC5(C)CC5)CC4)n3)ccc12` [Compound 591], the IC50 was more than 45 µM.

As for `CC(C)n1ncc2ccc(-c3nc(N4CCN(C(=O)OC(C)(C)C)CC4)no3)cc21` [Compound 548], the concentration for half-maximal inhibition (IC50) was more than 45 µM.

Molecule `Cc1nn(C)c2cc(-c3noc(N4CCN(C(=O)N5CCCCC5)CC4)n3)ccc12` [Compound 327] came in with an IC50 of more than 45 µM.

Regarding `CC(C)n1ncc2ccc(-c3noc([C@H]4CC[C@H](N)CC4)n3)cc21` [Compound 596], the IC50 is more than 45 µM.

With `CC(C)n1ncc2ccc(-c3noc(N4CCN(C(=O)OCC(F)(F)F)CC4)n3)cc21` [Compound 593], the IC50 is more than 45 µM.

With `CC(C)n1ncc2ccc(-c3noc(N4C[C@@H]5CNC[C@H]5C4)n3)cc21` [Compound 530], the concentration for half-maximal inhibition (IC50) was more than 45 µM.

As for `Cc1nn(C)c2cc(-c3noc(C4CCN(C(=O)CNC(=O)c5ccccc5C(F)(F)F)CC4)n3)ccc12` [Compound 271], the half-maximal inhibitory concentration (IC50) is more than 45 µM.
